Test results reported in patent US9060514B2, “Efficacy-enhancing agent composition for agricultural chemicals” (priority 2010, dated 2015).

Assay: Flash point of solvents
Assay type: physicochemical
Conditions: measured with Cleveland open cup tester or value from 15509 chemical products
Description: A flash point was a measured value (with a Cleveland open cup flashpoint tester or a value described in “15509 no Kagaku Seihin (15509 chemical products)” (2009, Jan., 27, Chemical Daily Co., Ltd.). Among solvents used in Comparative Examples, for those having a structure corresponding to the formula (C1), meanings of items in the formula (C1) were shown for convenience.

SMILES | Flash point [°C]
CC(C)O [Isopropanol] | 12
OCCO [Ethylene glycol] | 120
CCCCC(CC)CO (stereo not drawn) [2-ethyl-l-hexanol] | 78
CC(O)CO (stereo not drawn) [Propylene glycol] | 99
COCCOCCO [Methyl carbitol] | 105
CC(C)CO [Isobutanol] | 28
CCCCC(CC)COCCOCCO (stereo not drawn) [Diethylene glycol mono2-ethylhexyl ether] | 151
CCCCOCCOCCOCCCC [Diethyleneglycol dibutyl ether] | 122
C[S+](C)[O-] [Dimethylsulfoxide] | 95
OCCOCCO [Diethylene glycol] | 138

Other lines, results leading:

Flash point [°C] | SMILES
32 | COCC(C)O (stereo not drawn) [Propylene glycol monomethyl ether]
120 | CCCCOCCOCCO [n-Butyl carbitol]
56 | COCCOCCOC [Diethylene glycol dimethyl ether]
102 | CCOCCOCCO [Ethyl carbitol]
39 | COCCO [Methyl cellosolve]
